Experimental data published in patent US20060210500A1, “Formulations” (MERCK PATENT GMBH, priority 2003, published 2006).

Columns and labels:
[1] = over the entire pH range; cited from earlier work
[2] = test system: Aspergillus niger ATCC 16404; assay: challenge test, germ count by Agar plates method; assay type: cell-based; conditions: 8% aqueous suspension
Description: (§1) A standard procedure to measure the anti-microbial activity of substances was used (challenge tests). A suspension of test organisms (10^5 to 10^6 germs/ml) is inoculated into a recipient containing already the substance to be tested. Samples of the inoculated suspension are taken and the number of germs is measured thanks to the Agar plates method. Germ counts is performed at t=0, t=24 h after the inoculation, t=48 h after the inoculation, t=7 days after the inoculation, t=14 days after the inoculation.
(§2) Sterile water containing 8% w/w of treated and untreated carriers were each investigated.

[3] = test system: Candida albicans ATCC 10231; assay: challenge test, germ count by Agar plates method; assay type: cell-based; conditions: 8% aqueous suspension
Description: as §1, §2

Escheria coli ATCC8739 = assay: challenge test, germ count by Agar plates method; assay type: cell-based; conditions: 8% aqueous suspension
Description: as §1, §2

[4] = test system: Pseudomonas aeruginosa ATCC 9027; assay: challenge test, germ count by Agar plates method; assay type: cell-based; conditions: 8% aqueous suspension
Description: as §1, §2

[5] = test system: Staphylococcus aureus ATCC 6538; assay: challenge test, germ count by Agar plates method; assay type: cell-based; conditions: 8% aqueous suspension
Description: as §1, §2

O=c1c(O)c(-c2ccc(O)c(O)c2)oc2cc(O)cc(O)c12 [Quercetin, 3,3′,4′,5,7-pentahydroxyflavone]
antioxidant action [1]: the greatest activity amongst the structures investigated

silver oxide [0.02% Ag2O]
Germs Number/ml after 24 h ([2]; 24 h after inoculation): 3.5 · 10^5 germs/ml | Germs Number/ml after 48 h ([2]; 48 h after inoculation): 1.6 · 10^5 germs/ml | Germs Number/ml after 7 d ([2]; 7 d after inoculation): 1.0 · 10^5 germs/ml | Germs Number/ml after 14 d ([2]; 14 d after inoculation): 2.2 · 10^4 germs/ml | Germs Number/ml after Start ([2]; t=0): 4.5 · 10^5 germs/ml | Germs Number/ml after 24 h ([3]; 24 h after inoculation): 8.3 · 10^2 germs/ml | Germs Number/ml after 48 h ([3]; 48 h after inoculation): 0 germs/ml | Germs Number/ml after 7 d ([3]; 7 d after inoculation): 0 germs/ml | Germs Number/ml after 14 d ([3]; 14 d after inoculation): 0 germs/ml | Germs Number/ml after Start ([3]; t=0): 9.0 · 10^2 germs/ml | Germs Number/ml after 24 h (Escheria coli ATCC8739; 24 h after inoculation): 0 germs/ml | Germs Number/ml after 48 h (Escheria coli ATCC8739; 48 h after inoculation): 0 germs/ml | Germs Number/ml after 7 d (Escheria coli ATCC8739; 7 d after inoculation): 0 germs/ml | Germs Number/ml after 14 d (Escheria coli ATCC8739; 14 d after inoculation): 0 germs/ml | Germs Number/ml after Start (Escheria coli ATCC8739; t=0): 2.0 · 10^6 germs/ml | Germs Number/ml after 24 h ([4]; 24 h after inoculation): 0 germs/ml | Germs Number/ml after 48 h ([4]; 48 h after inoculation): 0 germs/ml | Germs Number/ml after 7 d ([4]; 7 d after inoculation): 0 germs/ml | Germs Number/ml after 14 d ([4]; 14 d after inoculation): 0 germs/ml | Germs Number/ml after Start ([4]; t=0): 2.2 · 10^5 germs/ml | Germs Number/ml after 24 h ([5]; 24 h after inoculation): 0 germs/ml | Germs Number/ml after 48 h ([5]; 48 h after inoculation): 0 germs/ml | Germs Number/ml after 14 d ([5]; 14 d after inoculation): 0 germs/ml | Germs Number/ml after Start ([5]; t=0): 2.7 · 10^6 germs/ml
